Laboratory results taken from patent publication US5220042A, “1,4-benzoquinone derivatives and benzene derivatives, and process for preparing the same” (priority 1984, dated 1993).
Where two headings read alike, the source gives them in different places.

Tests used:
5-lipoxygenase = biological target: T1, 5-lipoxygenase (Cavia porcellus, UniProt A0A286X958); experiment: 5-Lipoxygenase inhibitory activity (conversion of 14C-arachidonic acid to 5-HETE) in guinea pig peritoneal exudate cells; format: cell-based, guinea pig (Hartley strain); settings: read-out: inhibition ratio (%) of 5-lipoxygenase activity; for inhibition at 30 µM: concentration 3 × 10^-5 M; for inhibition at 3 µM: concentration 3 × 10^-6 M; for inhibition at 10 µM: concentration 10^-5 M; for inhibition at 1 µM: concentration 10^-6 M; for inhibition at 0.3 µM: concentration 3 × 10^-7 M; for inhibition at 0.1 µM: concentration 10^-7 M
T1 construct: endogenous in cells; host or cells: guinea pig (Hartley strain) casein-elicited peritoneal exudate cells, intact cell suspension
T1 sequence (A0A286X958 1-674): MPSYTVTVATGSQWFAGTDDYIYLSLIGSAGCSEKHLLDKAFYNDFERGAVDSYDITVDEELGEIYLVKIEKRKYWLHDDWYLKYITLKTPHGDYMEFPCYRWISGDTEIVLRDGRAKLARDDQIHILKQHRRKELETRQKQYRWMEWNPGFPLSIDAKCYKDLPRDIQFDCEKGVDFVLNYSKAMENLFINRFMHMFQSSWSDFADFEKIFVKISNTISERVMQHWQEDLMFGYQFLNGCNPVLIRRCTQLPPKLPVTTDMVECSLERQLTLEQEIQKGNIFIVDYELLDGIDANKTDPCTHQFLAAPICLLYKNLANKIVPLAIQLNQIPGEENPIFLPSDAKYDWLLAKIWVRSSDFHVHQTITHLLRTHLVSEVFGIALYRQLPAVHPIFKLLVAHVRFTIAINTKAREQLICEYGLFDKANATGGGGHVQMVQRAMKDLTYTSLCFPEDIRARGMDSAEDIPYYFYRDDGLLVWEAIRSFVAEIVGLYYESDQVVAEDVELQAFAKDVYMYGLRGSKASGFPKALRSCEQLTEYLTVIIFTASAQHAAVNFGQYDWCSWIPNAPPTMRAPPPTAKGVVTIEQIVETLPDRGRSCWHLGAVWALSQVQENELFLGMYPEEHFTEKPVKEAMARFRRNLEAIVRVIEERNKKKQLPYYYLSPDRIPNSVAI
Experimental: 5-Lipoxygenase inhibitory activity of the present compounds was determined by a method according to procedures described in "J. Biol. Chem., Vol. 256, pages 4156-4159, (1981, Ibid. Vol. 258, pages 5754-5758 (1983).
(1) Preparation of Test Cells
A guinea pig (Hartley strain) (500-650 g body weight) was intraperitoneally administered with 2%-casein solution in 3/50 the volume of body weight. 14 Hours after the administration, the animal was sacrificed by bleeding and the peritoneal cavity was washed with Dulbecco's phosphate buffered saline (PBS) containing 3 U/ml of heparin and the exudate cells were harvested. The sample of cells was washed twice with Dulbecco's PBS (-), then the cells were suspended in Dulbecco's PBS (-), containing 1 mM of calcium chloride and 5.5 mM of glucose, so as to make a suspension having the concentration of 2.5×10^7 cells/ml.
To 0.2 ml of the above-mentioned cell suspension was added 10^-5 M of Indomethacine, and incubated at 30° C. for 2 minutes. Each of the appropriate concentrations of test compounds was added to the suspension respectively, further incubated for 2 minutes. Next, 10 μm of Ionophore A23187 (manufactured by Calbiochem-Behring, San Diego, Calif., U. S. A) was added to the suspension, further, 10 μm of ^14 C-arachidonic acid (manufactured by Amersham Japan, Ltd., Tokyo, Japan) was added and initiated the reaction. 3 Minutes after the initiation of the reaction, 0.1 ml of 0.2M-citric acid was added so as to terminate the reaction. 1.2 Milliliters of ethyl acetate was added to the reaction mixture and shaked for 5 minutes. The reaction mixture was centrifuged at 3,000 rpm for 5 minutes so as to separate the organic layer from the aqueous layer. 1 Milliliter of the organic layer (the upper layer) was dehydrated by passing through a mini-column packed with anhydrous sodium sulfate. The dehydrated organic layer was dried under nitrogen gas stream. The residue obtained was dissolved in ethyl acetate, and the total amount of the ethyl acetate solution was spotted onto thin layer chromochromatography (TCL) plate (Art. 11845 manufactured by E. Merck A. G.). The TCL was carried out with a mixed solvent of diethyl ether:petroleum:ether:acetic acid (50:50:1 volume/volume), then the radioactive metabolites on the plate were detected by using "Ultrafilm ^3 H" (a trademark for a X-ray film, manufactured by LKB Co.). Each fractions corresponding to the metabolites was scraped in to a scintillation vial, and 5 ml of "Scintilator ACS-II" (manufactured by Amersham Japan, Ltd.), was added then the radio-activity was determined by means of a liquid scintillation counter.

[1] = tested on: SRS-A release from lung fragments; experiment: Inhibition of SRS-A release from sensitized guinea pig lung fragments; format: cell-based, guinea pig (Hartley strain); settings: Cavia porcellus
Experimental: Inhibitory activities on the release of SRS-A and histamine of the present compounds were determined.
A male guinea pig (Hartley strain) (body weight: about 300 g) was sensitized by a method according to P. Anderson: "Int. Archs. Allergey appln. Immunol., Vol. 64, pages 249-258 (1981). Thus, 30 mg/kg of cyclophosphamide was intraperitoneally administered to the guinea pig, and 2 days after 1 microgram of ovalbumin (manufactured by Sigma Chemical Co., St. Louis, Mo. U. S. A.) together with 10 mg of aluminium hydroxide gel were intraperitoneally administered so as to have the animal sesitized.
50 Days after the sesitization, the animal was killed by exsanguination, and the lung was isolated from the animal and was perfused with 20 ml of Tyrode's solution, then immersed in an ice-cooled Tyrode's solution. The parenchyma of the lung was cut by using McIlwain-type tissue chopper to make it into fragments of lung having 2 mm square and the fragments were washed with Tyrode's solution. 400 Milligrams of sectiles of lung were suspended in 3.6 ml of Tyrode's solution, and this suspension was preincubated at 37° C. for 5 minutes, then 4 microliters of dimethyl sulfoxide solution of the test compound, in the case of control 4 microliters of dimethyl sulfoxide alone was added to the suspension. 5 Minutes after, 0.4 ml of 100 micrograms/ml of ovalbumin solution added so as to release SRS-A for 10 minutes. The suspension was ice-cooled and filtered through gauze, the filtrate was centrifuged at 2,000 rpm for 10 minutes and the supernatant was collected. The supernatant was stored in freezed state at -80° C. until bio-assay was conducted.
Amounts of SRS-A and histamine contained in the supernatant were determined by bio-assay using ileum of guinea pig.
A piece of the ileum (2-3 cm of length) positioned from 15-25 cm from the opening portion of ileocecum was isolated from a male guinea pig (Hartley strain) (body weight: 400-600 g) which was fasted for 24 hours. The piece of ileum was hanged vertically in a Magnus tube which was filled with 10 ml of Tyrode's solution containing 10^-7 M of atropine sulfate under air stream conditions. The isotonic contraction of the piece of the ileum was measured at 0.5 g of load by using an isotonic transducer "TD-112S" (manufactured by Nihon Koden Co., Ltd.). The measurements were carried out after the reaction to histamine of the piece of ileum was kept constant. Bioassay of histamine was measured by using the value of contraction shown in 30 seconds after the addition of the supernatant. Bioassay of on SRS-A was measured by using the value of contraction shown at 2 minutes after the addition of the supernatant in the presence of 10^-6 M of pyrilamine (manufactured by Sigma Chemical Co.), and compared with the standard curve of crude SRS-A released from the fragments of the lung.

[2] = Table 2, dose 3 μM, read-out: Inhibition ratio (%) SRS-A
[3] = Table 2, dose 30 μM, read-out: Inhibition ratio (%) SRS-A
[4] = Table 2B, read-out: Inhibitory activities on SRS-A (%)

Row | Structure (SMILES) | inhibition at 3 µM (5-lipoxygenase) | inhibition at 1 µM (5-lipoxygenase) | inhibition at 0.3 µM (5-lipoxygenase) | inhibition at 0.1 µM (5-lipoxygenase) | inhibition at 1 µM [1, 4] | inhibition at 10 µM [1, 4] | also measured
1 | CCCC/C=C\CCCCCCCCCC1=CC(=O)C=C(OC)C1=O [Test Compound No. 1, 5-Methoxy-3-(Z-10-pentadecenyl)-1,4-benzoquinone] | 13% | 10% |  |  |  |  | inhibition at 30 µM (5-lipoxygenase): 87%; inhibition at 10 µM (5-lipoxygenase): 81%
2 | CCCC/C=C\CCCCCCCC1=C(O)C(=O)C=C(OC)C1=O [Test Compound No. 2, 5-Methoxy-2-hydroxy-3-(Z-8-tridecenyl)-1,4-benzoquinone] |  | 67% | 22% | 10% |  |  | 
3 | COC1=CC(=O)C(O)=C(CCCCCCC/C=C\CCCCCCCC2=C(O)C(=O)C(C)=C(OC)C2=O)C1=O [Test Compound No. 3, 1-(5-Methoxy-2-hydroxy-1,4-benzoquinon-3-yl)-16-(5-methoxy-2-hydroxy-6-methyl-1,4-benzoquinon-3-yl)-Z-8-hexadecene] | 95% | 86% | 44% | 4% |  |  | inhibition at 30 µM (5-lipoxygenase): 96%; inhibition at 10 µM (5-lipoxygenase): 97%
4 | COC1=CC(=O)C(O)=C(CCCCCCCC2OC2CCCCCCCC2=C(O)C(=O)C=C(OC)C2=O)C1=O (centres unmarked) [Test Compound No. 4, 1,16-bis(5-Methoxy-2-hydroxy-1,4-benzoquinon-3-yl)-8,9-epoxyhexadecane] | 96% | 96% | 92% | 66% |  |  | 
5 | COC1=CC(=O)C(OC)=C(CCCCCCCC2OC2CCCCCCCC2=C(OC)C(=O)C=C(OC)C2=O)C1=O (centres unmarked) [Test Compound No. 5, 1,16-(2,5-Dimethoxy-1,4-benzoquinon-3-yl)-8,9-epoxyhexadecane] | 86% | 86% | 24% | 17% |  |  | 
6 | COC1=CC(=O)C(O)=C(CCCCCCC/C=C\CCCCCCCc2cc(O)c(C)c(O)c2)C1=O [Test Compound No. 6, 1-(2-Hydroxy-5-methoxy-1,4-benzoquinon-3-yl)-16-(4-methyl-3,5-dihydroxyphenyl)-Z-8-hexadecene] |  | 58% | 29% | 7% |  |  | 
7 | COC1=CC(=O)C(O)=C(CCCCCCC/C=C\CCCCCCCc2cc(O)cc(O)c2)C1=O [Test Compound No. 7, 1-(2-Hydroxy-5-methoxy-1,4-benzoquinon-3-yl)-16-(3,5-dihydroxyphenyl)-Z-8-hexadecene] | 80% | 70% | 28% | 24% |  |  | 
8 | CCCCCCCCCCCCCC1=C(OC)C(=O)C=C(OC)C1=O [Test Compound No. 8, 2,5-Dimethoxy-3-tridecanyl-1,4-benzoquinone] | 40% | 12% |  |  |  |  | inhibition at 10 µM (5-lipoxygenase): 74%
9 | COC1=C(C)C(=O)C(OC)=C(CCCCCC2=C(OC)C(=O)C(C)=C(OC)C2=O)C1=O [Test Compound No. 17, 2,2'-Pentamethylenebis(3,6-dimethoxy-5-methyl-1,4-benzoquinone)] |  | 89% | 79% | 13% |  |  | inhibition at 3 µM [1, 2]: 56.3%; inhibition at 30 µM [1, 3]: 83.9%
10 | COC1=C(CCO)C(=O)C(OC)=C(CCCCCC2=C(OC)C(=O)C(CCO)=C(OC)C2=O)C1=O [Test Compound No. 19, 5,5'-Pentamethylenebis[2-(2-hydroxyethyl)-3,6-dimethoxy-1,4-benzoquinone]] |  | 87% | 74% | 48% |  |  | inhibition at 3 µM [1, 2]: 40.6%; inhibition at 30 µM [1, 3]: 76.6%; inhibition at 3 µM ([1]; Table 2B, 3 μM, read-out: Inhibitory activities on SRS-A (%)): 40.6%; inhibition at 30 µM ([1]; Table 2B, 30 μM, read-out: Inhibitory activities on SRS-A (%)): 76.6%
11 | NC1=CC(=O)C(N)=C(CCCCCC2=C(N)C(=O)C=C(N)C2=O)C1=O [Test Compound No. 52, 2,2'-Pentamethylenebis(3,6-diamino-1,4-benzoquinone)] |  |  |  |  | 10% | 16.2% | 
12 | COC1=CC(=O)C(OC)=C(CCCCCC2=C(OC)C(=O)C(OC)=C(OC)C2=O)C1=O [Test Compound No. 53, 2,3,5-Trimethoxy-6-[5-(2,5-dimethoxy-1,4-benzoquinon-3-yl)pentyl]-1,4-benzoquinone] |  |  |  |  | 50.8% | 94.9% | 
13 | COC1=C(CCCCCC2=C(OC)C(=O)C(OC)=C(OC)C2=O)C(=O)C(OC)=C(OC)C1=O [Test Compound No. 54, 2,2'-Pentamethylenebis(3,5,6-trimethoxy-1,4-benzoquinone)] |  |  |  |  | 32% | 88.7% | 
14 | CC1=C(C)C(=O)C(CCCCCC2=C(C)C(=O)C(C)=C(C)C2=O)=C(C)C1=O [Test Compound No. 55, 2,2'-Pentamethylenebis(3,5,6-trimethyl-1,4-benzoquinone)] |  |  |  |  | 13.2% | 38.7% | 
15 | COC1=CC(=O)C(OC)=C(CC2=C(OC)C(=O)C=C(OC)C2=O)C1=O [compound 22] |  |  |  |  | 37.6% | 85.4% | 
